Experimental data taken from patent publication US8557837B2, “Sinomenine derivatives, synthetic methods and uses thereof” (Shanghai Institute of Organic Chemistry, Chinese Academy of …, priority 2010, dated 2013).
Entries after “also recorded” stand apart in the source; their conditions may differ.

Key:
[1] = test system: TNF-α; experiment: In vitro inhibition of TNF-α (LPS-stimulated J774 macrophages, ELISA of supernatant); assay type: cell-based; conditions: mice macrophage cell line J774, 1 μg/mL LPS, compound 10 μM, 5 hours
Procedure: The horizontal axis indicates the compound numbers corresponding to the examples, and the vertical axis indicates the inhibition rate (IR) of TNF-α. The concentration used in the assays is 10 μM.
In vitro inhibition of TNF-α: inoculate 48 well plates with mice macrophase cell line J774, at 1×10^5 cells/well. Incubate in DMEM containing 10% FBS under 6% CO2 for 12 hours. Use DMEM medium containing 1 μg/mL LPS to dilute the small molecule compounds to a final concentration of 10^−5 mol/L and use that to replace the original culture medium. The incubation is continued for another 5 hours. Collect the supernatants and determine TNF-α using ELISA. In this experiment, compound SB 202190 (4-(4-fluorophenyl)-2-(4-hydroxyphenyl)-5-(4-pyridyl)-1H-imidazole, CAS 152121-30-7, was purchased from Sigma. This compound is a specific inhibitor of p38 MAPK. Through inhibition of p38 phosphorylation, it inhibits the production of TNF-α) is used as a positive control.

[2] = test system: TNF-α; experiment: LPS-induced endotoxin shock model, plasma TNF-alpha by ELISA; assay type: in vivo; conditions: male C57BL/6 mice, 25, 50, 100 mg/Kg injected peritoneally 1 hour before LPS 2.5 mg/Kg; blood 1.5 hours after LPS
From the text: The horizontal axis indicates the compound numbers corresponding to the examples or the amount of Compound 1 used in mg/Kg of mouse body weight. The vertical axis indicates the concentrations of TNF-α.
Materials: C57BL/6 mice (6-8 week old) are purchased from Shanghai Laboratory Animal Center (SLAC). Animals are kept, with sufficient water and standard diets, in the Laboratory Animal Center (clean room) in the Institute of Biochemistry and Cell Biology at the Shanghai Institute for Biological Sciences, Chinese Academy of Sciences.
Lipopolysaccharides (LPS) was purchased from Sigma (St. Louis, Mo.) was dissolved in sterile physiological saline and aliquots are stored at −70° C. (The LPS used in the cell testing has a catalog No. L4391, and used in animal testing has a catalog No. L3129.)
Cytokine (TNF-alpha) ELISA test kit (Catalog No. MTA00) was purchased from R&D Co.
Steps: (1) 6-8 week old male C57BL/6 mice are randomly grouped in 5 mice per group for use in endotoxin model tests;
(2) weigh each mouse, and inject peritoneally 200 μL different concentrations of small molecule Compound 1 in physiological saline (the injection doses for the low, medium, and high groups are respectively 25 mg/Kg, 50 mg/Kg, and 100 mg/Kg body weight). The control group was injected with 200 μL physiological saline; […]

| SMILES | inhibition rate (IR) of TNF-α / anti-inflammatory activity (FIG. 1) [1] | effect on pro-inflammatory cytokine TNF-α level in plasma (FIG. 3) [2] | melting point | inhibition rate (IR) of TNF-α / anti-inflammatory activity (FIG. 1) ([1]; 10 µM) |
| --- | --- | --- | --- | --- |
| COC1=C[C@@H]2[C@@H]3[C@H](Sc4ccc(C)cc4)c4ccc(O)c(O)c4[C@]2(CCN3C)CC1=O [Compound 1] | apparent activities | substantial inhibitory effect; also recorded: dose dependent | 224 to 225 °C (dec.) |  |
| COC1=CC2[C@@H]3[C@H](Sc4ccccc4)c4ccc(O)c(O)c4[C@]2(CCN3C)CC1=O (stereo partly drawn) [Compound 4] | apparent activities |  | 210 to 212 °C (dec.) |  |
| COC1=CC2[C@@H]3[C@H](Sc4ccc(C(C)(C)C)cc4)c4ccc(O)c(O)c4[C@]2(CCN3C)CC1=O (stereo partly drawn) [Compound 8] | apparent activities |  | 232 to 233 °C (dec.) |  |
| COC1=CC2[C@@H]3[C@H](OC(C)=O)c4ccc(OC(C)=O)c(OC(C)=O)c4[C@]2(CCN3C)CC1=O (stereo partly drawn) [Compound 31] | apparent activities |  | 198 to 199 °C |  |
| COC1=CC2[C@@H]3[C@H](OC)c4ccc(OC)c(O)c4[C@]2(CCN3C)CC1=O (stereo partly drawn) [Compound 33, 10β-methoxysinomenine] |  |  | 201 to 203 °C (dec.) | TNF-α stimulating effects; also recorded: TNF-α stimulatory activities |
| COC1=CC2[C@@H]3[C@H](OC(C)=O)c4c(CO)cc(OC)c(O)c4[C@]2(CCN3C)CC1=O (stereo partly drawn) [Compound 34, 1-hydroxymethyl-10β-acetoxysinomenine] |  |  |  | TNF-α stimulating effects; also recorded: TNF-α stimulatory activities |
| COC1=CC2[C@@H]3[C@H](OC)c4c(CO)cc(OC)c(O)c4[C@]2(CCN3C)CC1=O (stereo partly drawn) [Compound 35, 1-hydroxymethyl-10β-methoxysinomenine] |  |  |  | TNF-α stimulating effects; also recorded: TNF-α stimulatory activities |
| COC1=CC2[C@@H]3C(=O)c4ccc(OC)c(OC(C)=O)c4[C@]2(CCN3C)C[C@@H]1O (stereo partly drawn) [Compound 39] | apparent activities |  |  |  |
| COC1=CC2[C@@H]3C(=O)c4ccc(OC)c(OC(C)=O)c4[C@]2(CCN3C)C[C@H]1O (stereo partly drawn) [Compound 40] | apparent activities |  |  |  |
